Data on 4 molecules can be found in publication PMC4403932 (Journal of Medicinal Chemistry, 2015).

Like-named read-outs stand apart in the source and are kept apart here.

A short description of data set [1]: Solubility (observation in words). Type of data set: physicochemical.
The target of data set [2] is T1, BRD9 (Homo sapiens, UniProt Q9H8M2).
T1 construct: made in house
T1 sequence (Q9H8M2 136-240 limits assumed): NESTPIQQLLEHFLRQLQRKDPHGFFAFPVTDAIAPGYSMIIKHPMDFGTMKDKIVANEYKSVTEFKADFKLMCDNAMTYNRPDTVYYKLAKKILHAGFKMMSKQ
Description: Isothermal titration calorimetry, BRD9. Type of data set: binding. Conditions: for Kd / TΔS / ΔG / N (stoichiometry) / ΔHobs: ITC; for LE (ligand efficiency): LE = ΔG/N, N number of non-hydrogen atoms. Background: In ITC the heat of successive injections is recorded.

The target in data set [3] is T1, BRD9. In words: Protein stability (thermal) shift assay, BRD9. Type of data set: binding. To be noted: compound 10 μM, protein 2 μM; average of triplicate; read-out: ΔTm Shift, BRD9.
Another data set has as its target T2, BRD4(1) (Homo sapiens, UniProt O60885).
T2 construct: made in house
Description: Protein stability (thermal) shift assay, BRD4(1). To be noted: compound 10 μM, protein 2 μM; average of triplicate; read-out: ΔTm Shift, BRD4(1). Type of data set: binding.

In the next data set the target is T3, BRD2(1) (Homo sapiens, UniProt P25440).
T3 construct: Fragments were tested in a thermal shift assay against bromodomains of the BET subfamily; made in house
T3 sequence (P25440 74-180 limits assumed): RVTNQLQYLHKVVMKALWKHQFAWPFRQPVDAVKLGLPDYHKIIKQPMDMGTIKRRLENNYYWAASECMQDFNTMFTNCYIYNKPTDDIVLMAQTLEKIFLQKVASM
In words: Protein stability (thermal) shift assay, BRD2(1). Type of data set: binding. Conditions: compound 10 μM, protein 2 μM; average of triplicate.

Another data set has as its target T4, PCAF (Homo sapiens, UniProt Q92831).
T4 construct: representative BRDs from other structural subfamilies (family I, PCAF); made in house
T4 sequence (Q92831 723-827 limits assumed): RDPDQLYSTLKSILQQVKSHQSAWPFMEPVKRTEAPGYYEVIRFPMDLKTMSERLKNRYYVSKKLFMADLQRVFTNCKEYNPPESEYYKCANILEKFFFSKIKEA
Description: Protein stability (thermal) shift assay, PCAF. Type of data set: binding. Conditions: compound 10 μM, protein 2 μM; average of triplicate.

A further data set deals with T5, CREBBP (Homo sapiens, UniProt Q92793).
T5 construct: small thermal shits (1.0–1.3 °C) for the bromodomain of CREBBP; made in house
T5 sequence (Q92793 1085-1192 limits assumed): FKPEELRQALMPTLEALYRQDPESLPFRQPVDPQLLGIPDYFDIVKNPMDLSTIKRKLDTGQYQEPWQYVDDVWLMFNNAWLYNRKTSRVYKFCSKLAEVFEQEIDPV
In words: Protein stability (thermal) shift assay, CREBBP. Type of data set: binding. To be noted: compound 10 μM, protein 2 μM; average of triplicate; read-out: ΔTm Shift, CREBBP.

The target of a further data set is T6, BRDT(2) (Homo sapiens, UniProt Q58F21).
T6 construct: made in house
In words: Protein stability (thermal) shift assay, BRDT(2). Type of data set: binding. Conditions: compound 10 μM, protein 2 μM; average of triplicate; read-out: ΔTm Shift, BRDT(2).

Another data set concerns the target T7, PB1(5) (Homo sapiens, UniProt Q86U86).
T7 construct: made in house
In words: Protein stability (thermal) shift assay, PB1(5). Type of data set: binding. To be noted: compound 10 μM, protein 2 μM; average of triplicate.

For another data set, the target named is T8, BRD2(2) (Homo sapiens, UniProt P25440).
T8 construct: made in house
T8 sequence (P25440 344-453 limits assumed): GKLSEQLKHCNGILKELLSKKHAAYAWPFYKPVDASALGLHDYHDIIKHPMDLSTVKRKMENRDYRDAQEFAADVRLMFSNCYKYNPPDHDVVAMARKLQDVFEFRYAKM
Description: Protein stability (thermal) shift assay, BRD2(2). Type of data set: binding. Conditions: compound 10 μM, protein 2 μM; average of triplicate.

Another data set addresses T9, BRD3(1) (Homo sapiens, UniProt Q15059).
T9 construct: Fragments were tested in a thermal shift assay against bromodomains of the BET subfamily; made in house
Description: Protein stability (thermal) shift assay, BRD3(1). Type of data set: binding. Conditions: compound 10 μM, protein 2 μM; average of triplicate.

Another data set deals with T10, BRD3(2) (Homo sapiens, UniProt Q15059).
T10 construct: made in house
T10 sequence (Q15059 306-415 limits assumed): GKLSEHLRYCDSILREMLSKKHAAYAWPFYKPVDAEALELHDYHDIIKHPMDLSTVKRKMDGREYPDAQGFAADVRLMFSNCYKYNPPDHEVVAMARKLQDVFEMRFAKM
Description: Protein stability (thermal) shift assay, BRD3(2). Type of data set: binding. To be noted: compound 10 μM, protein 2 μM; average of triplicate.

In the next data set the target is T11, BRD4(2) (Homo sapiens, UniProt O60885).
T11 construct: made in house
In words: Protein stability (thermal) shift assay, BRD4(2). Conditions: compound 10 μM, protein 2 μM; average of triplicate. Type of data set: binding.

The target in another data set is T12, BRDT(1) (Homo sapiens, UniProt Q58F21).
T12 construct: made in house
In words: Protein stability (thermal) shift assay, BRDT(1). Type of data set: binding. To be noted: compound 10 μM, protein 2 μM; average of triplicate.

For the next data set, the target named is T13, BAZ2B (Homo sapiens, UniProt Q9UIF8).
T13 construct: representative BRDs from other structural subfamilies (family I, PCAF); family III, CREBBP; family IV, BRD9; family V, BAZ2B; made in house
T13 sequence (Q9UIF8 2060-2164 limits assumed): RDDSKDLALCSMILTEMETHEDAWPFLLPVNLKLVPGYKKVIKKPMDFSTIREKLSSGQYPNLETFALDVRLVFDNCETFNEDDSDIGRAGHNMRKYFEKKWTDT
In words: Protein stability (thermal) shift assay, BAZ2B. Type of data set: binding. Conditions: compound 10 μM, protein 2 μM; average of triplicate; read-out: ΔTm Shift, BAZ2BA.

For data set [4], the system named is human bromodomains (panel). Description: Protein stability (thermal) shift assay, whole panel of human bromodomains. Type of data set: binding. Conditions: 10 μM compound. As for the experimental part: Thermal melting experiments were carried out using an Mx3005p real time PCR machine (Stratagene). Proteins were buffered in 10 mM HEPES, pH 7.5, 500 mM NaCl and assayed in a 96-well plate at a final concentration of 2 μM in 20 μL volume. Compounds were added at a final concentration of 10 or 100 μM. SYPRO Orange (Molecular Probes) was added as a fluorescence probe at a dilution of 1 in 1000. Excitation and emission filters for the SYPRO-Orange dye were set to 465 and 590 nm, respectively. The temperature was raised with a step of 3 °C per minute from 25 to 96 °C, and fluorescence readings were taken at each interval. The temperature dependence of the fluorescence during the protein denaturation process was approximated by the equation [drawing 1] where ΔuG is the difference in unfolding free energy between the folded and unfolded state, R is the gas constant, and yF and yU are the fluorescence intensity of the probe in the presence of completely folded and unfolded protein, respectively.[65] The baselines of the denatured and native states were approximated by a linear fit. The observed temperature shifts, ΔTm^obs, were recorded as the difference between the transition midpoints of sample and reference wells containing protein without ligand in the same plate and determined by nonlinear least-squares fit. Temperature shifts (ΔTm^obs) for three independent measurements per proteins/compound are summarized in Supporting Information Table S1.

Setting [5] is: 50 mM HEPES pH 7.5, 150 mM NaCl, 15 °C, reverse titration, triplicate, read-out: KD.

T7 sequence (Q86U86 653-763 limits assumed): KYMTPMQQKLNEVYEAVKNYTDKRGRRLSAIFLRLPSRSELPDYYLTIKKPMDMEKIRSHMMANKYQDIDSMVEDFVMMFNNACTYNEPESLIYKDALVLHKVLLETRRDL
T9 sequence (Q15059 34-140 limits assumed): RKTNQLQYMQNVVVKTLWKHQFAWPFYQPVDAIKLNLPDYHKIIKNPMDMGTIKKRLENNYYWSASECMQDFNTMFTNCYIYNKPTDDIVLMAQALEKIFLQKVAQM

With `COc1ccc(Br)cc1-c1ncnc2[nH]c(C)nc12` [Compound 9a, 6-(5-Bromo-2-methoxyphenyl)-8-methyl-9H-purine], the “solubility (in words)” value in [1] is reported as “low solubility”.
For `COc1ccc(Br)cc1-c1nc(Cl)nc2[nH]cnc12` [Compound 8a, 6-(5-Bromo-2-methoxyphenyl)-2-chloro-9H-purine], the Kd was determined as 7.87 ± 0.258 µM at BRD9 [2] (setting [5]) and 7.9 µM at BRD9 [2] (read-out: dissociation constant). Further, the TΔS result on BRD9 [2] (15 °C) is reported as “–1.57 kcal/mol”. On BRD9 [2] (15 °C), the ΔG entry is listed as “–6.73 kcal/mol”. For the same molecule, at BRD9 [2] (15 °C, reverse titration), the “N (stoichiometry)” value came to 1.06 ± 0.014. At BRD9 [2] (15 °C, reverse titration), the ΔHobs result is on record as “–8.30 ± 0.15 kcal/mol”. Further, the “LE (ligand efficiency)” value on BRD9 [2] was 0.35. For the same molecule, the ΔTm at 10 µM on BRD9 [3] was 0.9 °C; on BRD4(1), 1.3 °C; on BRD2(1), 0.8 °C; at PCAF, -0.4 °C; on CREBBP, 2.5 °C; at BRDT(2), -0.164 °C. In addition, the ΔTm at 10 µM at PB1(5) was 1.3 °C; at BRD2(2) it was -0.564 °C; at BRD3(1), 1 °C; at BRD3(2), -0.00857 °C; on BRD4(2), 0.3 °C; on BRDT(1) it was -0.541 °C. Besides, the ΔTm at 10 µM on BAZ2B is -0.7 °C. Also, the “binding to the bromodomain panel in the ΔTm assay (in words)” value in data set [4] is listed as “loss of affinity toward all BRDs”.
Consider `Nc1nc(-c2cccc3c2Sc2ccccc2S3)c2nc[nH]c2n1` [Compound 10, 2-Amino-6-thianthrenyl-9H-purine], for which, on BRD9 [3], the ΔTm at 10 µM turned out to be 0.158 °C. In data set [1], the “solubility (in words)” value is “low solubility”.
For the molecule `COc1ccc(Cl)cc1-c1nc(O)nc2[nH]cnc12` [Compound 8e, 6-(5-Chloro-2-methoxyphenyl)-2-hydroxy-9H-purine], the Kd at BRD9 [2] (setting [5]) worked out at 7.58 ± 0.365 µM. The molecule further showed a TΔS on BRD9 [2] (15 °C) of 1.40 kcal/mol. The ΔG result on BRD9 [2] (15 °C) is “–6.75 kcal/mol”. In addition, the “N (stoichiometry)” value on BRD9 [2] (15 °C, reverse titration) turned out to be 1.05 ± 0.013. The ΔHobs result at BRD9 [2] (15 °C, reverse titration) is “–5.35 ± 0.09 kcal/mol”. In addition, the “LE (ligand efficiency)” value on BRD9 [2] was 0.36. The ΔTm at 10 µM on BRD9 [3] is -0.2 °C; on BRD4(1) it was 2.3 °C; on BRD2(1), 2.1 °C; on PCAF it was 2 °C; at CREBBP, 1 °C; at BRDT(2), 1.8 °C. In addition, the ΔTm at 10 µM on PB1(5) was found to be 1.7 °C; on BRD2(2), 1.2 °C; at BRD3(1), 1.9 °C; at BRD3(2), 1.3 °C; on BRD4(2), 1.3 °C; on BRDT(1), 1.5 °C. In addition, at BAZ2B, the ΔTm at 10 µM turned out to be 1.2 °C. In data set [4], the “binding to the bromodomain panel in the ΔTm assay (in words)” value is on record as “promiscuously bound to most bromodomains”.
